Legend:
large (Lg) crabgrass [1] = assay: Test A postemergence; format: in vivo, Digitaria sanguinalis; conditions: Digitaria sanguinalis, post-emergence, 240 h
Summary of the method: (§1)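 Compounds in non-phytotoxic solvent with surfactant applied as soil spray preemergence, or postemergence to plants 2-10 cm at one- to two-leaf stage, in loam/sand. After approximately 10 days in greenhouse, injury rated visually versus untreated controls, 0 (no effect) to 100 (complete control).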

wild oat = assay: Test C postemergence; format: in vivo, Avena fatua; conditions: Avena fatua, post-emergence
Summary of the method: (§2)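 Injury was assessed visually against controls 13 to 15 days after application, with 0 meaning no effect and 100 full control; missing entries are shown as a dash. Preemergence sprays hit seeded loam–sand soil, postemergence sprays hit 1- to 4-leaf plants.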

wheat = assay: Test A preemergence; format: in vivo, Triticum aestivum
Summary of the method: as §1

rice = assay: Test B flooded paddy test; format: in vivo, Oryza sativa; conditions: Oryza sativa; Flood, 250 g ai/ha; 0 to 100 scale where 0 is no effect and 100 is complete control; read-out: Plant response rating, Rice
Summary of the method: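 Scores from 0 (no effect) to 100 (complete control) are visual comparisons with controls, taken 13 to 15 days after compound was applied into floodwater 3 cm deep around 2-leaf plants.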

velvetleaf = assay: Test A postemergence; format: in vivo, Abutilon theophrasti; conditions: Abutilon theophrasti, post-emergence, 240 h
Summary of the method: as §1

yellow nutsedge = assay: Test C postemergence; format: in vivo, Cyperus esculentus; conditions: Cyperus, post-emergence
Summary of the method: as §2

kochia = assay: Test C postemergence; format: in vivo, Kochia scoparia; conditions: Bassia scoparia, post-emergence
Summary of the method: as §2

morningglory [2] = assay: Test A preemergence; format: in vivo, Ipomoea spp.
Summary of the method: as §1

large (Lg) crabgrass [3] = assay: Test A preemergence; format: in vivo, Digitaria sanguinalis; conditions: Digitaria sanguinalis, pre-emergence, 240 h
Summary of the method: as §1

corn = assay: Test A postemergence; format: in vivo, Zea mays; conditions: Zea mays, post-emergence, 240 h
Summary of the method: as §1

morningglory [4] = assay: Test C postemergence; format: in vivo, Ipomoea coccinea; conditions: Ipomoea, post-emergence
Summary of the method: as §2

giant foxtail [5] = assay: Test A postemergence; format: in vivo, Setaria faberii; conditions: Setaria faberi, post-emergence, 240 h
Summary of the method: as §1

Italian ryegrass = assay: Test C postemergence; format: in vivo, Lolium multiflorum; conditions: Lolium multiflorum, post-emergence
Summary of the method: as §2

pigweed = assay: Test C postemergence; format: in vivo, Amaranthus retroflexus; conditions: Amaranthus retroflexus, post-emergence
Summary of the method: as §2

giant foxtail [6] = assay: Test A preemergence; format: in vivo, Setaria faberii; conditions: Setaria faberi, pre-emergence, 240 h
Summary of the method: as §1

[7] = 125 g ai/ha, 0 to 100 scale where 0 is no effect and 100 is complete control, read-out: Plant response rating, Crabgrass, Large
[8] = 125 g ai/ha, 0 to 100 scale where 0 is no effect and 100 is complete control
[9] = 125 g ai/ha, 0 to 100 scale where 0 is no effect and 100 is complete control, read-out: Plant response rating, Foxtail, Giant

## N#Cc1cccc(Oc2ncc(Cl)cn2)c1-n1cc(Br)cn1 [Compound 52, 2-(4-bromo-1H-pyrazol-1-yl)-3-[(5-chloro-2-pyrimidinyl)oxy]benzonitrile]
Large (Lg) crabgrass [1]; [7]
  pest or weed control at 125 g/ha: 90%
Large (Lg) crabgrass [1]; 500 g ai/ha, 0 to 100 scale, 0 no effect, 100 complete control, read-out: Plant response rating Crabgrass, Large
  pest or weed control at 500 g/ha: 100%
Wild oat; 125 g ai/ha, postemergence, read-out: Plant response rating (0 to 100), Oat, Wild
  pest or weed control at 125 g/ha: 10%
Wild oat; 250 g ai/ha, postemergence, read-out: Plant response rating (0 to 100), Oat, Wild
  pest or weed control at 250 g/ha: 15%
Wild oat; Postemergence, 31 g ai/ha, scale 0 to 100 (0 no effect, 100 complete control), 13 to 15 days, read-out: Plant response rating, Oat, Wild
  pest or weed control at 31 g/ha: 0%
Wild oat; Postemergence, 62 g ai/ha, scale 0 to 100 (0 no effect, 100 complete control), read-out: Plant response rating, Oat, Wild
  pest or weed control at 62 g/ha: 5%
wheat; [8]
  Plant response rating, Wheat: 20
wheat; Triticum aestivum, pre-emergence, 240 h, 500 g ai/ha, 0 to 100 scale, 0 no effect, 100 complete control, approx. 10 days, read-out: Wheat plant response rating
  plant injury at 500 g/ha: 80%
rice
  plant injury at 250 g/ha: 20%
velvetleaf; 125 g ai/ha, 0 to 100 scale where 0 is no effect and 100 is complete control, read-out: Plant response rating, Velvetleaf
  pest or weed control at 125 g/ha: 100%
velvetleaf; 500 g ai/ha, 0 to 100 scale, 0 no effect, 100 complete control, read-out: Plant response rating Velvetleaf
  pest or weed control at 500 g/ha: 100%
Yellow nutsedge; 125 g ai/ha, postemergence, read-out: Plant response rating (0 to 100), Nutsedge, Yellow
  pest or weed control at 125 g/ha: 5%
Yellow nutsedge; 250 g ai/ha, postemergence, read-out: Plant response rating (0 to 100), Nutsedge, Yellow
  pest or weed control at 250 g/ha: 30%
Yellow nutsedge; Postemergence, 31 g ai/ha, scale 0 to 100 (0 no effect, 100 complete control), 13 to 15 days, read-out: Plant response rating, Nutsedge, Yellow
  pest or weed control at 31 g/ha: 0%
Yellow nutsedge; Postemergence, 62 g ai/ha, scale 0 to 100 (0 no effect, 100 complete control), read-out: Plant response rating, Nutsedge, Yellow
  pest or weed control at 62 g/ha: 5%
kochia; 125 g ai/ha, postemergence, read-out: Plant response rating (0 to 100), Kochia
  pest or weed control at 125 g/ha: 90%
kochia; 250 g ai/ha, postemergence, read-out: Plant response rating (0 to 100), Kochia
  pest or weed control at 250 g/ha: 95%
kochia; Postemergence, 31 g ai/ha, scale 0 to 100 (0 no effect, 100 complete control), 13 to 15 days, read-out: Plant response rating, Kochia
  pest or weed control at 31 g/ha: 75%
kochia; Postemergence, 62 g ai/ha, scale 0 to 100 (0 no effect, 100 complete control), read-out: Plant response rating, Kochia
  pest or weed control at 62 g/ha: 90%
Morningglory [2]; [8]
  Plant response rating, Morningglory: 90
Morningglory [2]; Ipomoea, pre-emergence, 240 h, 500 g ai/ha, 0 to 100 scale, 0 no effect, 100 complete control, approx. 10 days, read-out: Morningglory plant response rating
  pest or weed control at 500 g/ha: 100%
Large (Lg) crabgrass [3]; [7]
  pest or weed control at 125 g/ha: 100%
Large (Lg) crabgrass [3]; 500 g ai/ha, 0 to 100 scale, 0 no effect, 100 complete control, approx. 10 days, read-out: Crabgrass, Large plant response rating
  pest or weed control at 500 g/ha: 100%
corn; [8]
  Corn plant response rating (crop injury, 0 = no effect, 100 = complete kill) at 125 g/ha: 90%
corn; 500 g ai/ha, 0 to 100 scale, 0 no effect, 100 complete control, read-out: Plant response rating Corn
  plant injury at 500 g/ha: 90%
Morningglory [4]; 125 g ai/ha, postemergence, read-out: Plant response rating (0 to 100), Morningglory
  pest or weed control at 125 g/ha: 95%
Morningglory [4]; 250 g ai/ha, postemergence, read-out: Plant response rating (0 to 100), Morningglory
  pest or weed control at 250 g/ha: 100%
Morningglory [4]; Postemergence, 31 g ai/ha, scale 0 to 100 (0 no effect, 100 complete control), 13 to 15 days, read-out: Plant response rating, Morningglory
  pest or weed control at 31 g/ha: 80%
Morningglory [4]; Postemergence, 62 g ai/ha, scale 0 to 100 (0 no effect, 100 complete control), read-out: Plant response rating, Morningglory
  pest or weed control at 62 g/ha: 80%
Giant foxtail [5]; [9]
  pest or weed control at 125 g/ha: 90%
Giant foxtail [5]; 500 g ai/ha, 0 to 100 scale, 0 no effect, 100 complete control, read-out: Plant response rating Foxtail, Giant
  pest or weed control at 500 g/ha: 100%
Italian ryegrass; 125 g ai/ha, postemergence, read-out: Plant response rating (0 to 100), Ryegrass, Italian
  pest or weed control at 125 g/ha: 10%
Italian ryegrass; 250 g ai/ha, postemergence, read-out: Plant response rating (0 to 100), Ryegrass, Italian
  pest or weed control at 250 g/ha: 10%
Italian ryegrass; Postemergence, 31 g ai/ha, scale 0 to 100 (0 no effect, 100 complete control), 13 to 15 days, read-out: Plant response rating, Ryegrass, Italian
  pest or weed control at 31 g/ha: 0%
Italian ryegrass; Postemergence, 62 g ai/ha, scale 0 to 100 (0 no effect, 100 complete control), read-out: Plant response rating, Ryegrass, Italian
  pest or weed control at 62 g/ha: 5%
pigweed; 125 g ai/ha, postemergence, read-out: Plant response rating (0 to 100), Pigweed
  pest or weed control at 125 g/ha: 80%
pigweed; 250 g ai/ha, postemergence, read-out: Plant response rating (0 to 100), Pigweed
  pest or weed control at 250 g/ha: 95%
pigweed; Postemergence, 31 g ai/ha, scale 0 to 100 (0 no effect, 100 complete control), 13 to 15 days, read-out: Plant response rating, Pigweed
  pest or weed control at 31 g/ha: 60%
pigweed; Postemergence, 62 g ai/ha, scale 0 to 100 (0 no effect, 100 complete control), read-out: Plant response rating, Pigweed
  pest or weed control at 62 g/ha: 60%
Giant foxtail [6]; [9]
  pest or weed control at 125 g/ha: 100%
Giant foxtail [6]; 500 g ai/ha, 0 to 100 scale, 0 no effect, 100 complete control, approx. 10 days, read-out: Foxtail, Giant plant response rating
  pest or weed control at 500 g/ha: 100%
